The record followed here is ChEMBL document CHEMBL4373741, “Direct and straightforward access to substituted alkyl selenols as novel carbonic anhydrase inhibitors” (Eur J Med Chem, 2020).

pKi: −log10 of the molar value.

Broadly, the pKi is −log10 of the Ki, conventionally taken in molar units.

In assay [1] the target is Carbonic anhydrase 7 (Homo sapiens, UniProt P43166). The assay is described as follows: Inhibition of recombinant human CA7 incubated for 15 mins by phenol red dye based stopped flow CO2 hydration assay.
Carbonic anhydrase 7, sequence (P43166 whole entry): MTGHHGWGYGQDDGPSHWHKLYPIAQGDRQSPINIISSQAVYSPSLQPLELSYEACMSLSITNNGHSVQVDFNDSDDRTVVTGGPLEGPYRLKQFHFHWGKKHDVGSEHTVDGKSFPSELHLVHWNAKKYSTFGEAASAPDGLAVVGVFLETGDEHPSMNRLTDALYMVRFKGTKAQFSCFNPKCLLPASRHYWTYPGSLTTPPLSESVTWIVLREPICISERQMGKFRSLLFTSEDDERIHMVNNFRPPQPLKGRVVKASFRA
Assay [2] addresses Carbonic anhydrase 9 (Homo sapiens, UniProt Q16790). The assay is described as follows: Inhibition of recombinant human CA9 incubated for 15 mins by phenol red dye based stopped flow CO2 hydration assay.

With `C=CCOCC(S)C[SeH]` (stereo not given), the pKi in assay [1] was less than 4.00; in assay [2], 4.41.

`O[C@@H](CCl)C[SeH]`: the pKi in assay [1] was less than 4.00; in assay [2] it was 4.22.

As to `O[C@H](CCl)C[SeH]`, the pKi in assay [1] and in assay [2] was less than 4.00 in each case.

Regarding `CC(C)[C@@H](C[SeH])NC(=O)OC(C)(C)C`, the pKi in assay [2] is less than 4.00.

Consider `CC[C@H](C)[C@@H](C[SeH])NS(=O)(=O)c1ccc(C)cc1`, for which the negative logarithm of the Ki (pKi) in assay [1] and in assay [2] was less than 4.00 each time.

Take `OC(C[SeH])COCc1ccccc1` (stereo not given): in assay [2], the negative logarithm of the Ki (pKi) is 4.23.

Regarding `Cc1ccc(S(=O)(=O)N[C@H](C[SeH])C(C)C)cc1`, in assay [2], the pKi was 5.68.

For `C=CCOCC(O)C[SeH]` (stereo not given), in assay [2], the pKi is less than 4.00.

For `SC(C[SeH])COCc1ccccc1` (stereo not given), the pKi in assay [2] is 5.18.

`COc1ccc(COCC(O)C[SeH])cc1` (stereo not given): the pKi in assay [1] and in assay [2] was less than 4.00 in each case.
